From patent US4146631A, “Benzamide derivatives” (May & Baker Limited, priority 1976, dated 1979)

What was measured:
[1] = test system: passive cutaneous anaphylactic (PCA) reaction; experiment: Passive cutaneous anaphylactic (PCA) reaction, reagin-allergen combination, in rats; format: in vivo; details: Rattus norvegicus; for ED100: intravenous, just before injection of allergen, read-out: ED100 (intravenous dose which produces 100% inhibition of the PCA reaction); for inhibition in vivo at 100 mg/kg: oral dose of 100 mg/kg; for inhibition in vivo at 100 mg/kg / ED50: thirty minutes before intravenous allergen; for ED50: oral, read-out: ED50 (oral dose which produces 50% inhibition of the PCA reaction)
Excerpt: In pharmacological tests the benzamide derivatives of general formula I suppress the passive cutaneous anaphylactic (PCA) reaction resulting from combination of tissue-fixed reaginic antibodies with the appropriate antigenic material (termed reagin-allergen combination) and carried out in an essentially similar manner to that described by Ogilvie [Nature (Lond.), (1964), 204, 91-92; Immunology, (1967), 12, 112-131]. In the method used to test these compounds sera were obtained from rats which had been infected with larvae of the nematode parasite Nippostrongylus brasiliensis; as a result of the parasitic infestation reaginic antibodies are elaborated in the host mammal and are found in sera removed from such animals. Other, non-infected, rats received intradermal injections of appropriate dilutions of such sera and were then given the allergenic material along with Evans' blue dye intravenously forty-eight hours later.
The allergenic material consisted of supernatant fluid after centrifugation of homogenates of adult Nippostrongylus brasiliensis worms which had been macerated in Tyrode's solution. The sites of PCA reactions were visualised by the effusion of Evan's blue dye from the circulation into those areas as a result of increased capillary permeability caused by the release of biologically-active substances from cells where reagin-allergen combination had occurred. The new compounds when given intravenously to the rats just before injection of allergen, or administered orally thirty minutes before intravenous injection of allergen, were able to prevent the development of the PCA reaction, as shown below in Table I, Table II and Table III.

[2] = Acute oral toxicity in mice; details: mouse, in vivo, highest dose used 1000 mg/kg, read-out: LD50 (doses lethal to 50% of mice tested)
Excerpt: Mice were each treated orally with one of the compounds of formula I, and they were observed daily until there had been at least 3 consecutive days without any deaths. The LD50 figures obtained (doses lethal to 50% of mice tested) are shown below in Table IV, expressed in mg/kg animal body weight.
The symbol ">" means "greater than" in this specification. Where the LD50 is said to be ">1000," a more precise estimation of the LD50 was not possible because the numbers of deaths was too small, even at the highest dose used, 1000 mg/kg.

[3] = Acute intravenous toxicity in mice; details: mouse, in vivo
Excerpt: Mice were each treated intravenously with an aqueous solution of the triethanolamine salt or sodium salt of one of the compounds of formula I, and they were observed until there had been at least 3 consecutive days without any deaths. The LD50 figures obtained (doses lethal to 50% of mice tested) are shown below in Table V, expressed in mg/kg animal body weight. In Table V, "Na" means that the sodium salt was used and "T" means that the triethanolamine salt was used.
The aqueous solutions were prepared as follows:
A mixture of the test compound and water was treated gradually with triethanolamine until complete solution occurred. The solution was then diluted with water to a concentration of test compound of either 1% w/v or 2% w/v.
The test compound was dissolved in aqueous sodium hydroxide (1N) and the solution was brought to pH 8 by treatment with hydrochloric acid. The solution was then diluted with water to a concentration of test compound of 2% w/v.
Various volumes of these solutions were then administered to the mice.

[4] = triethanolamine salt (T), 2% w/v test solution
[5] = sodium salt (Na), 2% w/v test solution

Row | SMILES | ED100 [1] | inhibition in vivo at 100 mg/kg [1] | ED50 [1] | LD50 [2] | LD50 [3, 4] | LD50 [3, 5] | LD50 ([3]; triethanolamine salt (T), 1% w/v solution for lower doses, 2% w/v for higher doses)
1 | CCC(C)c1cc(C(C)=O)c(O)c(C(=O)Nc2nnn[nH]2)c1 (stereo not shown) [Compound BY, 3-acetyl-5-sec-butyl-2-hydroxy-N-(tetrazol-5-yl)benzamide] | 0.5 mg/kg | 43% | 1.8 mg/kg | > 1000 mg/kg | 180 mg/kg |  | 
2 | O=C(Nc1nnn[nH]1)c1cc([N+](=O)[O-])cc([N+](=O)[O-])c1O [Compound AE, 2-hydroxy-3,5-dinitro-N-(tetrazol-5-yl)benzamide] | 0.05 mg/kg | 80% | 0.1 to 0.45 mg/kg | > 1000 mg/kg | 490 mg/kg |  | 
3 | CCOc1cccc(C(=O)Nc2nnn[nH]2)c1O [AS, 3-ethoxy-2-hydroxy-N-(tetrazol-5-yl)benzamide] | 1 mg/kg | 76% | 10 mg/kg | > 1000 mg/kg | 560 mg/kg |  | 
4 | CC(=O)c1cc(C(=O)Nc2nnn[nH]2)c(O)c([N+](=O)[O-])c1 [CQ, 5-acetyl-2-hydroxy-3-nitro-N-(tetrazol-5-yl)benzamide] | 0.2 mg/kg | 56% |  | > 1000 mg/kg | 890 mg/kg |  | 
5 | CCCc1cc(C(C)=O)c(O)c(C(=O)Nc2nnn[nH]2)c1 [Compound CD, 3-acetyl-2-hydroxy-5-propyl-N-(tetrazol-5-yl)benzamide] | 0.1 mg/kg | 64% |  | > 1000 mg/kg | 250 mg/kg |  | 
6 | CC(=O)c1cc(C)cc(C(=O)Nc2nnn[nH]2)c1O [AR, 3-acetyl-2-hydroxy-5-methyl-N-(tetrazol-5-yl)benzamide] | 0.1 mg/kg | 42% | 0.75 mg/kg | > 1000 mg/kg | 430 mg/kg |  | 
7 | COc1cccc(C(=O)Nc2nnn[nH]2)c1O [Compound BE, 2-hydroxy-3-methoxy-N-(tetrazol-5-yl)benzamide] | 0.2 mg/kg | 62% | 18 mg/kg | > 1000 mg/kg | 580 mg/kg |  | 
8 | CC(=O)c1ccc(O)c(C(=O)Nc2nnn[nH]2)c1 [Compound AV, 5-acetyl-2-hydroxy-N-(tetrazol-5-yl)benzamide] | 10 mg/kg | 16% |  | > 1000 mg/kg | 645 mg/kg |  | 
9 | Cc1cc(C(=O)Nc2nnn[nH]2)c(O)c(C(=O)c2ccccc2)c1 [CR, 3-benzoyl-2-hydroxy-5-methyl-N-(tetrazol-5-yl)benzamide] | 1 mg/kg | 22% |  | > 1000 mg/kg | 350 mg/kg |  | 
10 | N#Cc1cccc(C(=O)Nc2nnn[nH]2)c1O [CJ, 3-cyano-2-hydroxy-N-(tetrazol-5-yl)benzamide] | 0.5 mg/kg | 50% | 37 mg/kg | > 1000 mg/kg | > 1000 mg/kg |  | 
11 | CCc1cc(C(C)=O)c(O)c(C(=O)Nc2nnn[nH]2)c1 [BW, 3-acetyl-5-ethyl-2-hydroxy-N-(tetrazol-5-yl)benzamide] | 0.1 mg/kg | 51% | 0.1 mg/kg | > 1000 mg/kg |  | 320 mg/kg | 
12 | CC(=O)c1cc([N+](=O)[O-])cc(C(=O)Nc2nnn[nH]2)c1O [Compound CS, 3acetyl-2-hydroxy-5-nitro-N-(tetrazol-5-yl)benzamide] | 0.1 mg/kg | 54% |  | > 1000 mg/kg | 780 mg/kg |  | 
13 | O=C(Nc1nnn[nH]1)c1cccc([N+](=O)[O-])c1O [AI, 2-hydroxy-3-nitro-N-(tetrazol-5-yl)benzamide] | 0.5 mg/kg | 68% | 5 to 30 mg/kg | > 1000 mg/kg | > 1000 mg/kg |  | 
14 | O=C(Nc1nnn[nH]1)c1cc(F)ccc1O [Compound BH, 5-fluoro-2-hydroxy-N-(tetrazol-5-yl)benzamide] | 1 mg/kg | 94% | 16 mg/kg | > 1000 mg/kg |  |  | 500 mg/kg
15 | COc1ccc(O)c(C(=O)Nc2nnn[nH]2)c1 [AP, 2-hydroxy-5-methoxy-N-(tetrazol-5-yl)benzamide] | 0.5 mg/kg | 75% | 100 mg/kg | > 1000 mg/kg |  | 950 mg/kg | 
